For 15 compounds, IC50 results are on record in BindingDB's records for patent US11021481 (Nimbus Saturn, 2021).

Some results are limits rather than exact numbers.

Mitogen-activated protein kinase kinase kinase kinase 1, sequence (Q92918 whole entry): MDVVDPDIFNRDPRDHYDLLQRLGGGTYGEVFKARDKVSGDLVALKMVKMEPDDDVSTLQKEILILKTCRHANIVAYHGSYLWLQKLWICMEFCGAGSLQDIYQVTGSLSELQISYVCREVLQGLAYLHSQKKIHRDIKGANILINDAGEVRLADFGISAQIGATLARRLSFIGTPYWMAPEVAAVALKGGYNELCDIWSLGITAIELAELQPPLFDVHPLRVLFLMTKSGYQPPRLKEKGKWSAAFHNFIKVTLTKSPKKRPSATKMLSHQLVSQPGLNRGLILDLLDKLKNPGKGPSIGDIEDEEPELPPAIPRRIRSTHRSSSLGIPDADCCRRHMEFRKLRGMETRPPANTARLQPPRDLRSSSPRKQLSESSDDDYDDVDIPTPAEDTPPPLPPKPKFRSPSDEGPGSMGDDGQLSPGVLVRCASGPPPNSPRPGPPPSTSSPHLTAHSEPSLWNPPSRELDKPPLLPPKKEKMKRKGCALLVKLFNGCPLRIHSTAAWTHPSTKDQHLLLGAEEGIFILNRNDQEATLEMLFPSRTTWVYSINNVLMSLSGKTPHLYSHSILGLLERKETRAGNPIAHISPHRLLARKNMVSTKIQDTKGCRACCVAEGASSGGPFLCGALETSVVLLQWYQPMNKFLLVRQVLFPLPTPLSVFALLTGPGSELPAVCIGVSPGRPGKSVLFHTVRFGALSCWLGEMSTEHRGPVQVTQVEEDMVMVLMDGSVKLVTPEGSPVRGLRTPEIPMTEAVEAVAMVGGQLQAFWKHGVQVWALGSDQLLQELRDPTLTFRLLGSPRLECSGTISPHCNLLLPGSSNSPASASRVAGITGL

For the assay, the target named is Mitogen-activated protein kinase kinase kinase kinase 1 (Homo sapiens, UniProt Q92918). The assay is described as follows: Biochemical Enzyme Assay. The method, then:
HPK1 biochemical enzyme assay: HPK1 enzyme inhibition was measured using a microfluidic mobility shift assay. […] Test compounds were titrated in ten point curves (top final assay concentration 3 μM), and preincubated with enzyme/substrate mix for 30 min prior to initiation of the reaction by addition of ATP (1 mM final concentration) and substrate (1 μM final concentration; Carna Biosciences) diluted in assay buffer supplemented by MgCl2 (final assay concentration of 5 mM). Following 60 min incubation at RT, the reaction was terminated by addition of 60 µl/well termination buffer (Carna Biosciences) and signal determination using aCaliper EZ Reader (Perkin Elmer, UK).
For `Cn1ccc2c1N=CNC2c1ccc(Nc2ccc(N3CCC(O)CC3)cn2)c2c1CNC2=O` (stereo not given) [US11021481, Compound I-144], the IC50 was below 0.1 µM. As to `O=C1NCc2c(-c3cnc4ccccn34)ccc(Cc3ccn(C4CCOCC4)n3)c21` [US11021481, Compound I-382], the IC50 was above 1 µM.

Turning to `CNC1CN(c2cccc(Nc3cnc(-c4ccnc5c4ccn5C)c4c3C(=O)NC4)c2)C1` [US11021481, Compound I-449], the IC50 is below 0.1 µM.

Compound `CC(C)(O)[C@@H]1CN(c2ccc(Nc3ccc(-c4cnc5c(C(F)F)cccn45)c4c3C(=O)NC4)nc2)CCO1` [US11021481, Compound I-475] showed a half-maximal inhibitory concentration (IC50) below 0.1 µM. In the case of `Cc1ccn2c(-c3ncc(Nc4cccc(C5CC[C@@H]6CNC[C@H]56)n4)c4c3CNC4=O)cnc2c1F` (stereo not given in full) [US11021481, Compound I-480], the IC50 entry was “in the range around 0.55 µM”. `Cc1ccn2c(-c3ncc(Nc4cccc(C5CCC6CNCC65)n4)c4c3CNC4=O)cnc2c1F` (stereo not given) [US11021481, Compound I-481] displayed an IC50 below 0.1 µM. The compound `Cc1ccnn2c(-c3ncc(Nc4ccc(C5CCOC5)c(CN(C)C)n4)c4c3CNC4=O)cnc12` (stereo not given) [US11021481, Compound I-539] returned an IC50 below 0.1 µM. Take `C[C@@H]1CN(c2c(CN(C)C)cc(Nc3ccc(-c4cnc5cc(F)ccn45)c4c3C(=O)NC4)nc2CN(C)C)CCO1` [US11021481, Compound I-541]: the IC50 was below 0.1 µM. `Cn1ccc2c(-c3ncc(Nc4ccc(C5CCOC5)c(CN5CCCC5)n4)c4c3CNC4=O)cccc21` (stereo not given) [US11021481, Compound I-552] yielded an IC50 below 0.1 µM.

In turn, `Cc1ccn2c(-c3ccc(Nc4ccc(C5CCOC5)c(CN(C)C)n4)c4c3CNC4=O)cnc2c1` (stereo not given) [US11021481, Compound I-561] yielded an IC50 below 0.1 µM. In turn, `CN1CC(O)(C2CCCN(c3ccc(Nc4ccc(C5=CNC6C=C(F)C=CN56)c5c4C(=O)NC5)nc3)C2)C1` (stereo not given) [US11021481, Compound I-599] registered an IC50 below 0.1 µM. With `CN1CCN(c2nc(Nc3ccc(-c4cnc5cc(F)ccn45)c4c3C(=O)NC4)cnc2[C@H]2CCOC2)CC1` [US11021481, Compound I-801], the concentration for half-maximal inhibition (IC50) is below 0.1 µM. As for `CN1CCN(c2nc(Nc3ccc(-c4cnc5cc(F)ccn45)c4c3C(=O)NC4)cnc2[C@@H]2CCOC2)CC1` [US11021481, Compound I-802], the half-maximal inhibitory concentration (IC50) was below 0.1 µM. The compound `CN(C)Cc1nc(Nc2cnc(-c3cccc4c3ccn4C)c3c2C(=O)NC3)ccc1O[C@@H]1CCOC1` [US11021481, Compound I-805] showed an IC50 below 0.1 µM. Compound `COCC1(O)CCN(c2ccc(Nc3ccc(-c4ccnc5c4ccn5C)c4c3C(=O)NC4)nc2CN(C)C)CC1` [US11021481, Compound I-851] showed an IC50 below 0.1 µM.
